Like-named read-outs stand apart in the source and are kept apart here.
What was measured:
UM-SCC-22A cells [1] = assay: MTT cell survival assay and isobologram studies; assay type: cell-based, human
Description: Human head and neck cancer cell lines UM-SCC-1 (retromolar trigone/floor of the mouth), UM-SCC-12 (primary tumor of larynx), and UM-SCC-22A cells were obtained from clinical samples. Cells were grown in DMEM containing 10% FCS and 1% penicillin/streptomycin at 37° C. in 5% CO2.
MTT cell survival assay and isobologram studies. The concentrations of agents that inhibited cell growth by 50% (IC50) were determined from cell survival plots obtained by MTT. Triplicate wells were used for each treatment. The final concentration of DMSO (a solvent for conventional ceramides, GMZ and DOX) in the growth medium was less than 0.1% (v/v) which has no effect on cell growth and survival. Pyridinium ceramides were dissolved in sterile water or growth medium. In short, after cells (5-10×10^3/well) were seeded in 96-well-plates for 24 hr, they were treated with increasing concentrations of ceramide analogs for an additional 48 or 96 hr. For combination treatments, ceramides and chemotherapeutic agents (gemcitabine (GMZ) or doxorubicin (DOX)) were added to the growth medium simultaneously during treatment. Isobologram plots were then constructed using IC50 values of the two agents alone or in combination obtained from MTT assays. A straight line joining points on x- and y-axes represent the IC50 concentrations of two agents, and the points representing the IC50 concentrations of the combination of the two agents are represented as scatter plots on the same graphs. In general, the points that fall within the left of the straight line indicate synergism. The experiments were performed as triplicates in at least 3 independent experiments.
Human head and neck cancer cell lines UM-SCC-1 (retromolar trigone/floor of the mouth), UM-SCC-14A (SCC of anterior floor of the mouth), and UM-SCC-22A (SCC of hypopharynx) cells were obtained. Cells were grown in DMEM containing 10% FCS and 1% penicillin/streptomycin at 37° C. in 5% CO2.
MTT cell survival assay and isobologram studies. The concentrations of agents that inhibited cell growth by 50% (IC50) were determined from cell survival plots obtained by MTT assays. […] In general, the points that fall within the left of the straight line indicate synergism. The experiments were performed as triplicates in at least 3 independent experiments. Error bars represent standard deviations.

UM-SCC-1 cells = assay: MTT cell survival assay; assay type: cell-based, human; conditions: UM-SCC-1, 96 hr; read-out: IC50, cell survival
Description: (§1) Cell lines and culture conditions. […] Cells were grown in DMEM containing 10% FCS and 1% penicillin/streptomycin at 37° C. in 5% CO2. The Wi-38 human lung fibroblasts were obtained from American Type Culture Collection, and were grown in DMEM as described above. Adult human epidermal keratinocytes were purchased from Cascade Biologics, and were maintained in EpiLife medium with growth supplements as described by the manufacturer.
(§2) MTT cell survival assay and isobologram studies. […] Triplicate wells were used for each treatment. The final concentration of DMSO (a solvent for conventional ceramides, GMZ and DOX) in the growth medium was less than 0.1% (v/v) which has no effect on cell growth and survival. Pyridinium ceramides were dissolved in sterile water or growth medium. In short, after cells (5-10×10^3/well) were seeded in 96-well-plates for 24 hr, they were treated with increasing concentrations of ceramide analogs for an additional 48 or 96 hr. For combination treatments, ceramides and chemotherapeutic agents (gemcitabine (GMZ) or doxorubicin (DOX)) were added to the growth medium simultaneously during treatment. Isobologram plots were then constructed using IC50 values of the two agents alone or in combination obtained from MTT assays. […]

UM-SCC12 cells = assay: MTT cell survival assay; assay type: cell-based, human; conditions: UM-SCC12, 96 hr
Description: as §1, §2

[2] = system: Wi-38 human lung fibroblasts; assay: MTT cell survival assay, non-cancerous cells; assay type: cell-based; conditions: Wi-38 fibroblasts, DMEM; read-out: IC50, cell growth in DMEM
Description: as §1
(§3) MTT cell survival assay and isobologram studies. […] Triplicate wells were used for each treatment. The final concentration of DMSO (a solvent for conventional ceramides, GMZ and DOX) in the growth medium was less than 0.1% (v/v) which has no effect on cell growth and survival. Pyridinium ceramides were dissolved in sterile water or growth medium. In short, after cells (5-10×10^3/well) were seeded in 96-well-plates for 24 hr, they were treated with increasing concentrations of ceramide analogs for an additional 48 or 96 hr. For combination treatments, ceramides and chemotherapeutic agents (gemcitabine (GMZ) or doxorubicin (DOX)) were added to the growth medium simultaneously during treatment. Isobologram plots were then constructed using IC50 values of the two agents alone or in combination obtained from MTT assays. A straight line joining points on x- and y-axes represent the IC50 concentrations of two agents, and the points representing the IC50 concentrations of the combination of the two agents are represented as scatter plots on the same graphs.

[3] = system: adult human epidermal keratinocytes (HEK); assay: MTT cell survival assay, non-cancerous cells; assay type: cell-based
Description: as §1, §3

UM-SCC-22A cells [4] = assay: Apoptotic cell death by annexin V staining; assay type: cell-based, human
From the text: Thus, these ceramide analogs appear to exert minimal apoptotic activity on their own, with selective cell cycle arrest in these cells.

telomerase [5] = assay: Telomerase activity (TRAP) in treated cells; assay type: cell-based, human; conditions: UM-SCC-22A
Description: (§4) FIGS. 13A to 13B. Roles of CCPS on cell cycle profiles, and telomerase activity of UM-SCC-22A cells. (FIG. 13A) The effects of D-e-C6—, D-e-C12- and L-th-C12-pyridinium ceramides (at 1 μM for 48 hr) on cell cycle profiles of UM-SCC-22A cells were determined and compared to that of untreated cells using flow cytometry as described in Materials and Methods. (FIG. 13B) The effects of 0, 100, 250 and 500 nM L-t-C6-Pyr-Cer (LCL-124) (lanes 1-4, respectively) at 96 hr treatment in UM-SCC-22A cells on telomerase activity was assessed using TRAP assay. Lanes 5 and 6 contain positive (+) and negative (−) controls. To examine whether C6-Pyr-Cer inhibits telomerase activity directly, cell extracts (as shown in lane 1) were incubated in the presence of various concentrations of L-th-C6-Pyr-ceramide (LCL-124; 10, 20 and 100 μM) and telomerase activity was determined using TRAP assay (lanes 7-9, respectively). The presence of non-telomeric 36 bp internal standard (IS) in the TRAP assay serves as a control for polymerase chain reaction, and used for quantitation/normalization of the activity of telomerase. The results shown are representative of at least two independent experiments.
FIGS. 14A to 14D. […] (FIG. 14A) The effects of various chemotherapeutic agents on cell growth in UM-SCC-22A cells were determined using MTT assays, and the IC50 concentrations of each agent were determined from cell growth plots as described. (FIG. 14B) The synergistic effects of DOX and L-th-C6-Pyr-Cer (LCL-124) on cell growth were assessed using isobologram studies as described in Materials and Methods. (FIG. 14C) The effects of 1 μM L-th-C6-Pyr-Cer (LCL-124) or cetyl-pyridinium-bromide, without ceramide conjugate (used as a control) on the growth inhibition potential of GMZ in UM-SCC-22A cells were determined using MTT assays. (FIG. 14D) The effects of GMZ (100 nM), L-th-C6-Pyr-Cer (LCL-124; 1 μM) or GMZ and L-th-C6-Pyr-Cer (LCL-124) (100 nM and 1 μM, respectively) on telomerase activity in UM-SCC-22A cells at 48 hr were examined using TRAP assay, and compared to that of untreated controls (lanes 2, 3, 4 and 1, respectively). The data shown are representative of at least two independent experiments performed in triplicate samples. Standard deviations in each sample were between 0.1-0.5.
Determination of telomerase activity. Telomerase activity in cell extracts was measured by the PCR-based telomere repeat amplification protocol (TRAP) using TRAPeze kit (Intergen, Gaithersburg, Md.) which includes a 36-bp internal control to allow quantification of activity. In short, the intensity of telomere-specific DNA bands, measured using Quantity One (BioRad) software, were normalized to the intensity of internal control bands for each sample on polyacrylamide gels for quantification.

telomerase [6] = target: T1, telomerase (Homo sapiens, UniProt O14746); assay: Telomerase activity (TRAP), compound applied directly to cell extracts; assay type: biochemical; conditions: 10, 20 and 100 μM
T1 construct: endogenous in cells; host or cells: UM-SCC-22A
T1 sequence (O14746 whole entry): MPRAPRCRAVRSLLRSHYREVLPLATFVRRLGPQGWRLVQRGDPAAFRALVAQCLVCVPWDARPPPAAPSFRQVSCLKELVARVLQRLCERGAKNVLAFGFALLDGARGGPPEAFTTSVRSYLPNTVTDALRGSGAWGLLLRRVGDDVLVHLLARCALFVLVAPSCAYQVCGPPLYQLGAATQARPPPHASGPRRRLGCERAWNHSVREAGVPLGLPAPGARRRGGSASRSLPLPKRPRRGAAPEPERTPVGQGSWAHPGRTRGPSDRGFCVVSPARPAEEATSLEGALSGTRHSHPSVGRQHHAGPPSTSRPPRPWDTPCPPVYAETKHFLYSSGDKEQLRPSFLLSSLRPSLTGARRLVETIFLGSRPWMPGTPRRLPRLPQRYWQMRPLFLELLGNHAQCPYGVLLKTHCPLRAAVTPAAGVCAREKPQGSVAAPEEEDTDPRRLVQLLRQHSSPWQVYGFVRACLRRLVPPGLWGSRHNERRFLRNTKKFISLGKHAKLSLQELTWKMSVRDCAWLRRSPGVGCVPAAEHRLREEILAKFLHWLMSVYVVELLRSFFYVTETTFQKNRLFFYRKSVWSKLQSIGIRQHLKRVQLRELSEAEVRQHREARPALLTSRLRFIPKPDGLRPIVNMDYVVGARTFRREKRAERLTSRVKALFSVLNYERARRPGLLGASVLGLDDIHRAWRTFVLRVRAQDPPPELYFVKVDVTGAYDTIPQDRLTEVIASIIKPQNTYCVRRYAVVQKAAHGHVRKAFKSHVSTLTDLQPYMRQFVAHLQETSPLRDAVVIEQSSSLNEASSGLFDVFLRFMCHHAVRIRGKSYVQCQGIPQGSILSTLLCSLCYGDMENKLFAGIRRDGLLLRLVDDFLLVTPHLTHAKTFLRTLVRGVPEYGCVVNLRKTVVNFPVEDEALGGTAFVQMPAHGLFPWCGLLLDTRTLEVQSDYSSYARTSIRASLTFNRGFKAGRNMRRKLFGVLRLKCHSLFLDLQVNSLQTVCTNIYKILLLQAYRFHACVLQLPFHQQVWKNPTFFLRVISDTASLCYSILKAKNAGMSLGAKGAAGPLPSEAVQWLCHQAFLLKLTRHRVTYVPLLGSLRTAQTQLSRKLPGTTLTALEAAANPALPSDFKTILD
T1 sequence (O60832 whole entry partner): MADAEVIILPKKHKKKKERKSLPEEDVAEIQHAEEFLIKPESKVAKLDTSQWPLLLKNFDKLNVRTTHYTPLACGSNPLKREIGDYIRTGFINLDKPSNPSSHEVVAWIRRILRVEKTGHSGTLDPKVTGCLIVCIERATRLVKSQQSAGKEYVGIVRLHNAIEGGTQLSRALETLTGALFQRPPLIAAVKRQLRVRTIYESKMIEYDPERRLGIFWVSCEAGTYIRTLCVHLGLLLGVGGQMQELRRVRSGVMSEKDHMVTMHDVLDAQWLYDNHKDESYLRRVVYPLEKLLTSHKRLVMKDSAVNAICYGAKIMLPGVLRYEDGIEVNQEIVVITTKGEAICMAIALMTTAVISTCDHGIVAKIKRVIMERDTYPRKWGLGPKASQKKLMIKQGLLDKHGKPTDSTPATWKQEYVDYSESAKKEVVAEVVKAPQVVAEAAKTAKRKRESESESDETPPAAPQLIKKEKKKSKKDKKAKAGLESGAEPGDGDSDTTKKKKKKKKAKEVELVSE
T1 sequence (Q9NPE3 whole entry partner): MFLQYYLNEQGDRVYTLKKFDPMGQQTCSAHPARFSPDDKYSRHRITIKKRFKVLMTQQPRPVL
T1 sequence (Q9NX24 whole entry partner): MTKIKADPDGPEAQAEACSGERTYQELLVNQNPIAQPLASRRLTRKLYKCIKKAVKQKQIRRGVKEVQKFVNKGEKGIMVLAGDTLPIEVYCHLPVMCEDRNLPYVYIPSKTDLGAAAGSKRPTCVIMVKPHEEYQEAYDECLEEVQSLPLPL
T1 sequence (Q9NY12 whole entry partner): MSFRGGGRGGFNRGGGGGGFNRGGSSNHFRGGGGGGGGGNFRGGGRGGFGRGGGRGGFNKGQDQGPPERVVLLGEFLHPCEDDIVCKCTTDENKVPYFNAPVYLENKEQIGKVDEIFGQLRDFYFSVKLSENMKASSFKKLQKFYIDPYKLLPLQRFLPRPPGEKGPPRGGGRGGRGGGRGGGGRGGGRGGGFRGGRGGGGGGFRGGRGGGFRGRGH
T1 sequence (Q9BUR4 whole entry partner): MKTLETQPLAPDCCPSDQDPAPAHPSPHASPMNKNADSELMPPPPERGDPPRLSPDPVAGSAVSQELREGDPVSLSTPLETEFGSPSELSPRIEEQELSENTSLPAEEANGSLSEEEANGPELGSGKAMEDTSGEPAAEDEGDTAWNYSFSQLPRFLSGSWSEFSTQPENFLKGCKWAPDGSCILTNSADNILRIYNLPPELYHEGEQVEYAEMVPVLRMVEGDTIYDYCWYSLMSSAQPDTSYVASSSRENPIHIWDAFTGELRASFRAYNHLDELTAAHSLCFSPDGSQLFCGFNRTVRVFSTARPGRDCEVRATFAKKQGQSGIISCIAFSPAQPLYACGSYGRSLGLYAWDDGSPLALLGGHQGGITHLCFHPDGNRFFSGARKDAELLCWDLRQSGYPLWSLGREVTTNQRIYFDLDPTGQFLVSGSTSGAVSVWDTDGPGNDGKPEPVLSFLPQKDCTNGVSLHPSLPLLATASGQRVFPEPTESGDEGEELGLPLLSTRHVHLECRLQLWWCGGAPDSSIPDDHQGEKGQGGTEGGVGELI
Description: as §4, with “The results shown are representative of at least two independent experiments.” left out
Determination of telomerase activity. Telomerase activity in cell extracts was measured by the PCR-based telomere repeat amplification protocol (TRAP) using TRAPeze kit (Intergen, Gaithersburg, Md.) which includes a 36-bp internal control to allow quantification of activity. […]

CCCCCCCCCCCCCC=CC(O)C(CO)NC(=O)CCCCC[n+]1ccccc1 (stereo not drawn) [C6-Pyr-Cer]
effect on the growth inhibition by GMZ (UM-SCC-22A cells [1]; UM-SCC-22A, 1 μM with various concentrations of GMZ, 48 hr): enhanced the anti-proliferative effects of GMZ | interaction with DOX, isobologram (UM-SCC-22A cells [1]; UM-SCC-22A, 25, 50 and 100 nM with DOX, 96 hr): decreased growth synergistically | fold more effective in inhibiting cell growth than conventional C6-ceramides (UM-SCC-22A cells [1]; UM-SCC-22A, 96 hr): > 4 fold | optimum concentration for synergistic interaction with DOX (UM-SCC-22A cells [1]; UM-SCC-22A, 96 hr): 50 nM | IC50 (UM-SCC-22A cells [1]; UM-SCC-22A, 96 hr, DMEM, read-out: IC50, cell growth): ~0.3 µM | IC50 (UM-SCC-22A cells [1]; UM-SCC-22A, EpiLife medium, 96 hr, read-out: IC50, cell growth in EpiLife medium): > 2 µM | fold more effective in squamous cell carcinoma cells than in non-cancerous fibroblasts or keratinocytes (UM-SCC-22A cells [1]; in vitro): > 4 fold | IC50 (UM-SCC-1 cells): 0.25 to 0.3 µM | IC50 (UM-SCC12 cells): 0.25 to 0.3 µM | IC50 [2]: > 1 µM | IC50 ([3]; HEK, EpiLife medium, 96 hr, read-out: IC50, cell growth in EpiLife medium): > 2 µM | IC50 ([3]; keratinocytes, DMEM, read-out: IC50, cell growth in DMEM): > 1 µM | apoptotic cell death, annexin V staining (UM-SCC-22A cells [4]): did not show any detectable signal | inhibition of telomerase activity (telomerase [5]; 100 nM, 96 hr): about 30% | inhibition of telomerase activity (telomerase [5]; 250 nM, 96 hr): ~50% | inhibition of telomerase activity (telomerase [5]; 500 nM, 96 hr): ~75% | inhibition of telomerase activity (telomerase [5]; 48 hr, C6-Pyr-Cer 1 μM, GMZ 100 nM): 30% | effect on telomerase activity when applied directly to the extracts (telomerase [6]): no significant effect on telomerase activity

Reference: patent US8093393B2, “Cationic ceramides, and analogs thereof, and their use for preventing or treating cancer” (MUSC Foundation for Research Development, priority 2004, dated 2012)
